According to patent US11180504B2 (ORCHID PHARMA LTD., priority 2016, dated 2021):
Converted amounts (≈) assume the structure as drawn. Like-named read-outs stand apart in the source and are kept apart here.

Assays:
[1] = test system: carbapenemase producing K. pneumoniae; experiment: MIC by broth micro-dilution (CLSI), carbapenemase producing K. pneumoniae; type: cell-based, Klebsiella pneumoniae
[2] = test system: carbapenem sensitive Escherichia coli; experiment: MIC by broth micro-dilution (CLSI), carbapenem sensitive E. coli; type: cell-based
[3] = test system: methicillin-sensitive Staphylococcus aureus; experiment: MIC by broth micro-dilution (CLSI), methicillin-sensitive S. aureus; type: cell-based; details: MSSA S. aureus ATCC29213
[4] = test system: carbapenem sensitive Pseudomonas aeruginosa; experiment: MIC by broth micro-dilution (CLSI), carbapenem sensitive P. aeruginosa; type: cell-based
[5] = Klebsiella pneumoniae, ATCCBAA1705, KPC-2 K. pneumoniae ATCC BAA-1705, read-out: MIC
[6] = Escherichia coli, ATCC25922, ESBL −ve E. coli ATCC25922, read-out: MIC
[7] = Staphylococcus aureus, ATCC 29213 / MSSA, read-out: MIC
[8] = Pseudomonas aeruginosa, ATCC27853, Meropenem susceptible P. aeruginosa ATCC27853, read-out: MIC

MIC [1, 5] [µg/mL]	MIC [2, 6] [µg/mL]	MIC [3, 7] [µg/mL]	MIC [4, 8] [µg/mL]	MIC ([1]; KPC-2 K. pneumoniae ATCC BAA-1705) [µg/mL]	MIC ([2]; ESBL −ve E. coli ATCC25922) [µg/mL]	MIC [3] [µg/mL]	MIC ([4]; Meropenem susceptible P. aeruginosa ATCC27853) [µg/mL]	SMILES
2 (≈ 3.65 µM)	0.5 (≈ 0.913 µM)	4 (≈ 7.3 µM)	16 (≈ 29.2 µM)	–	–	–	–	C[C@@H](NC(=O)Cn1cnnn1)[C@H]1C(=O)N2C(C(=O)O)=C(S[C@@H]3CN[C@H](C(=O)N4CCC[C@@H]4CN)C3)[C@H](C)[C@H]12 [Example 465, (4R,5S,6R)-6-((R)-1-(2-(1H-tetrazol-1-yl)acetamido)ethyl)-3-((3S,5S)-5-((R)-2-(aminomethyl)pyrrolidine-1-carbonyl)pyrrolidin-3-ylthio)-4-methyl-7-oxo-1-azabicyclo[3.2.0]hept-2-ene-2-carboxylic acid]
2 (≈ 3.55 µM)	0.5 (≈ 0.887 µM)	4 (≈ 7.1 µM)	4 (≈ 7.1 µM)	–	–	–	–	C[C@@H](NC(=O)Cn1cnnn1)[C@H]1C(=O)N2C(C(=O)O)=C(S[C@@H]3CN[C@H](C(=O)N4C[C@@H](O)C[C@H]4CN)C3)[C@H](C)[C@H]12 [Example 470, (4R,5S,6R)-6-((R)-1-(2-(1H-tetrazol-1-yl)acetamido)ethyl)-3-((3S,5S)-5-((2S,4S)-2-(aminomethyl)-4-hydroxypyrrolidine-1-carbonyl)pyrrolidin-3-ylthio)-4-methyl-7-oxo-1-azabicyclo[3.2.0]hept-2-ene-2-carboxylic acid]
2 (≈ 3.47 µM)	0.5 (≈ 0.869 µM)	2 (≈ 3.47 µM)	4 (≈ 6.95 µM)	–	–	–	–	C[C@@H](NC(=O)Cn1cnnn1)[C@H]1C(=O)N2C(C(=O)O)=C(S[C@@H]3CN[C@H](C(=O)N4CCO[C@H]5CNC[C@H]54)C3)[C@H](C)[C@H]12 [Example 471, (4R,5S,6R)-6-((R)-1-(2-(1H-tetrazol-1-yl)acetamido)ethyl)-4-methyl-3-((3S,5S)-5-((4aR,7aS)-octahydropyrrolo[3,4-b][1,4]oxazine-4-carbonyl)pyrrolidin-3-ylthio)-7-oxo-1-azabicyclo[3.2.0]hept-2-ene-2-carboxylic acid]
2 (≈ 3.65 µM)	0.5 (≈ 0.913 µM)	4 (≈ 7.3 µM)	2 (≈ 3.65 µM)	–	–	–	–	C[C@@H](NC(=O)Cn1cnnn1)[C@H]1C(=O)N2C(C(=O)O)=C(S[C@@H]3CN[C@H](C(=O)N4CC[C@@H](CN)C4)C3)[C@H](C)[C@H]12 [Example 472, (4R,5S,6R)-6-((R)-1-(2-(1H-tetrazol-1-yl)acetamido)ethyl)-3-((3S,5S)-5-((S)-3-(aminomethyl)pyrrolidine-1-carbonyl)pyrrolidin-3-ylthio)-4-methyl-7-oxo-1-azabicyclo[3.2.0]hept-2-ene-2-carboxylic acid]
2 (≈ 3.55 µM)	0.5 (≈ 0.889 µM)	4 (≈ 7.11 µM)	4 (≈ 7.11 µM)	–	–	–	–	C[C@@H](NC(=O)Cn1cnnn1)[C@H]1C(=O)N2C(C(=O)O)=C(S[C@@H]3CN[C@H](C(=O)N4C[C@H](N)C[C@@H]4CN)C3)[C@H](C)[C@H]12 [Example 473, (4R,5S,6R)-6-((R)-1-(2-(1H-tetrazol-1-yl)acetamido)ethyl)-3-((3S,5S)-5-((2R,4R)-4-amino-2-(aminomethyl)pyrrolidine-1-carbonyl)pyrrolidin-3-ylthio)-4-methyl-7-oxo-1-azabicyclo[3.2.0]hept-2-ene-2-carboxylic acid]
2 (≈ 3.55 µM)	0.25 (≈ 0.444 µM)	4 (≈ 7.1 µM)	2 (≈ 3.55 µM)	–	–	–	–	C[C@@H](NC(=O)Cn1cnnn1)[C@H]1C(=O)N2C(C(=O)O)=C(S[C@@H]3CN[C@H](C(=O)N4C[C@H](N)C[C@@H]4CO)C3)[C@H](C)[C@H]12 [Example 474, (4R,5S,6R)-6-((R)-1-(2-(1H-tetrazol-1-yl)acetamido)ethyl)-3-((3S,5S)-5-((2R,4R)-4-amino-2-(hydroxymethyl)pyrrolidine-1-carbonyl)pyrrolidin-3-ylthio)-4-methyl-7-oxo-1-azabicyclo[3.2.0]hept-2-ene-2-carboxylic acid]
2 (≈ 3.46 µM)	0.5 (≈ 0.866 µM)	4 (≈ 6.92 µM)	2 (≈ 3.46 µM)	–	–	–	–	C[C@@H](NC(=O)Cn1cnnn1)[C@H]1C(=O)N2C(C(=O)O)=C(S[C@@H]3CN[C@H](C(=O)N4CCC(N)(CO)CC4)C3)[C@H](C)[C@H]12 [Example 475, (4R,5S,6R)-6-((R)-1-(2-(1H-tetrazol-1-yl)acetamido)ethyl)-3-((3S,5S)-5-(4-amino-4-(hydroxymethyl)piperidine-1-carbonyl)pyrrolidin-3-ylthio)-4-methyl-7-oxo-1-azabicyclo[3.2.0]hept-2-ene-2-carboxylic acid]
2 (≈ 3.32 µM)	1 (≈ 1.66 µM)	2 (≈ 3.32 µM)	32 (≈ 53.2 µM)	–	–	–	–	C[C@@H](NC(=O)Cn1cnnn1)[C@H]1C(=O)N2C(C(=O)O)=C(S[C@@H]3CN[C@H](C(=O)N4CCCCC45CCNCC5)C3)[C@H](C)[C@H]12 [Example 476, (4R,5S,6R)-3-((3S,5S)-5-(1,9-diazaspiro[5.5]undecane1-carbonyl)pyrrolidin-3-ylthio)-6-((R)-1-(2-(1H-tetrazol-1-yl)acetamido)ethyl)-4-methyl-7-oxo-1-azabicyclo[3.2.0]hept-2-ene-2-carboxylic acid]
2 (≈ 3.4 µM)	0.5 (≈ 0.851 µM)	2 (≈ 3.4 µM)	64 (≈ 109 µM)	–	–	–	–	C[C@@H](NC(=O)Cn1cnnn1)[C@H]1C(=O)N2C(C(=O)O)=C(S[C@@H]3CN[C@H](C(=O)N4CCCC45CCNCC5)C3)[C@H](C)[C@H]12 [Example 477, (4R,5S,6R)-3-((3S,5S)-5-(1,8-diazaspiro[4.5]decane-1-carbonyl)pyrrolidin-3-ylthio)-6-((R)-1-(2-(1H-tetrazol-1-yl)acetamido)ethyl)-4-methyl-7-oxo-1-azabicyclo[3.2.0]hept-2-ene-2-carboxylic acid]
1 (≈ 1.74 µM)	0.25 (≈ 0.434 µM)	2 (≈ 3.47 µM)	2 (≈ 3.47 µM)	–	–	–	–	C[C@@H](NC(=O)Cn1cnnn1)[C@H]1C(=O)N2C(C(=O)O)=C(S[C@@H]3CN[C@H](C(=O)N4CCC(CCN)CC4)C3)[C@H](C)[C@H]12 [Example 480]
2 (≈ 3.42 µM)	0.125 (≈ 0.213 µM)	2 (≈ 3.42 µM)	2 (≈ 3.42 µM)	–	–	–	–	C[C@@H](NC(=O)Cn1cnnn1)[C@H]1C(=O)N2C(C(=O)O)=C(S[C@@H]3CN[C@H](C(=O)N4CCn5c(cnc5N)C4)C3)[C@H](C)[C@H]12 [Example 481, (4R,5S,6R)-6-((R)-1-(2-(1H-tetrazol-1-yl)acetamido)ethyl)-3-((3S,5S)-5-(3-amino-5,6,7,8-tetrahydroimidazo[1,5-a]pyrazine-7-carbonyl)pyrrolidin-3-ylthio)-4-methyl-7-oxo-1-azabicyclo[3.2.0]hept-2-ene-2-carboxylic acid]
4 (≈ 6.13 µM)	0.5 (≈ 0.766 µM)	4 (≈ 6.13 µM)	128 (≈ 196 µM)	–	–	–	–	C[C@@H](NC(=O)Cn1cnnn1)[C@H]1C(=O)N2C(C(=O)O)=C(S[C@@H]3CN[C@H](C(=O)Nc4cccc(C(=O)N5CCNCC5)c4)C3)[C@H](C)[C@H]12 [Example 483, (4R,5S,6R)-6-((R)-1-(2-(1H-tetrazol-1-yl)acetamido)ethyl)-4-methyl-7-oxo-3-((3S,5S)-5-(3-(piperazine-1-carbonyl)phenylcarbamoyl)pyrrolidin-3-ylthio)-1-azabicyclo[3.2.0]]
4 (≈ 7.02 µM)	1 (≈ 1.76 µM)	2 (≈ 3.51 µM)	32 (≈ 56.2 µM)	–	–	–	–	C[C@@H](NC(=O)Cn1cnnn1)[C@H]1C(=O)N2C(C(=O)O)=C(S[C@@H]3CN[C@H](C(=O)Nc4ccc(CN)cc4)C3)[C@H](C)[C@H]12 [Example 484, (4R,5S,6R)-6-((R)-1-(2-(1H-tetrazol-1-yl)acetamido)ethyl)-3-((3S,5S)-5-(4-(aminomethyl)phenyl-carbamoyl)-pyrrolidin-3-ylthio)-4-methyl-7-oxo-1-azabicyclo[3.2.0]hept-2-ene-2-carboxylic acid]
4 (≈ 7.11 µM)	0.5 (≈ 0.889 µM)	8 (≈ 14.2 µM)	4 (≈ 7.11 µM)	–	–	–	–	C[C@@H](NC(=O)Cn1cnnn1)[C@H]1C(=O)N2C(C(=O)O)=C(S[C@@H]3CN[C@H](C(=O)N4CCN[C@@H](CN)C4)C3)[C@H](C)[C@H]12 [Example 485, (4R,5S,6R)-6-((R)-1-(2-(1H-tetrazol-1-yl)acetamido)ethyl)-3-((3S,5S)-5-((S)-3-(aminomethyl)piperazine-1-carbonyl)pyrrolidin-3-ylthio)-4-methyl-7-oxo-1-azabicyclo[3.2.0]hept-2-ene-2-carboxylic acid]
8 (≈ 14.8 µM)	0.5 (≈ 0.923 µM)	2 (≈ 3.69 µM)	64 (≈ 118 µM)	–	–	–	–	C[C@@H](NC(=O)C(F)F)[C@H]1C(=O)N2C(C(=O)O)=C(S[C@@H]3CN[C@H](C(=O)N4CCC5CNCCC54)C3)[C@H](C)[C@H]12 (stereo partly drawn) [Example 486, (4R,5S,6R)-6-((R)-1-(2,2-difluoroacetamido)ethyl)-4-methyl-3-((3S,5S)-5-(octahydro-1H-pyrrolo[3,2-c]pyridine-1-carbonyl)pyrrolidin-3-ylthio)-7-oxo-1-azabicyclo[3.2.0]hept-2-ene-2-carboxylic acid]
–	–	–	–	1 (≈ 1.7 µM)	0.25 (≈ 0.425 µM)	2 (≈ 3.4 µM)	8 (≈ 13.6 µM)	C[C@@H](NC(=O)Cn1cnnn1)[C@H]1C(=O)N2C(C(=O)O)=C(S[C@@H]3CN[C@H](C(=O)N4CCC5NCCCC5C4)C3)[C@H](C)[C@H]12 (stereo partly drawn) [Example 487, (4R,5S,6R)-6-((R)-1-(2-(1H-tetrazol-1-yl)acetamidin)ethyl)-3-((3S,5S)-5-(decahydro-1,6-naphthyridine-6-carbonyl)pyrrolidin-3-ylthio)-4-methyl-7-oxo-1-azabicyclo[3.2.0]hept-2-ene-2-carboxylic acid]
